{"source": "paper PMC8333425", "about": "“Discovery of a dual Ras and ARF6 inhibitor from a GPCR endocytosis screen” (Nature Communications, 2021)", "assay_type_in_all_cases": "cell-based, human", "key": {"ERK1/2 activation by V2R": {"test_system": "ERK1/2 activation by V2R", "assay": "Western blot of V2R-mediated ERK1/2 activation (rebuttal Figure 1)", "conditions": "Barbadin 100 µM"}, "AT1R": {"test_system": "AT1R", "assay": "BRET recording of AT1R removal from the PM (AT1R-RlucII / rGFP-CAAX)", "conditions": "for AngII-promoted BRET, AT1R removal from the PM: Comp 21 50 μM, individual experiments", "method": "HEK293SL cells were seeded at a density of 7.5 × 10^5 cells per 100-mm dish and 24 h later, transiently transfected as such. For receptor internalization experiments, cells were transfected with 0.12 μg AT1R-RlucII, B2R-RlucII, or β2AR-RlucII and 0.48 μg of either rGFP-CAAX (to assess removal from the PM) or rGFP-FYVE (to assess accumulation in the endosomes). For β-arrestin recruitment assays, cells were transfected with 0.48 μg of receptor-YFP along with 0.12 μg of β-arrestin-RlucII. For β-arrestin/AP-2 binding experiments, cells were transfected with 1 μg Flag-AT1R, 1 μg β2-Adaptin-YFP, and 0.12 μg β-arrestin2-RlucII. For G protein activation, cells were transfected with 3 μg of sp-Flag-AT1R along with either 4.5 μg of the Gαq-polycistronic BRET sensor or 0.24 μg of the Gαi3-RlucII and 0.6 μg of GFP10-Gγ2 and Gβ1 sensors or 0.12 μg PKN-RBD-RlucII and 0.48 μg of rGFP-CAAX. For PKC activation, cells were transfected with 3 μg of sp-Flag-AT1R and 0.18 μg of the PKC sensor. For GTPase activation experiments, cells were transfected with 1 μg Flag-AT1R, 0.48 μg of rGFP-CAAX, and either 0.12 μg of GGA3-PBD-RlucII, PAK-CRIB-RlucII or Raf-RBD-RlucII. For biosensor validation experiments, cells were additionally transfected with 500 ng Flag-K-Ras-WT, Flag-K-Ras-G12V, Flag-K-Ras-SOS-CAAX, HA-ARF6-WT, HA-ARF6-T27N, Myc-Rac1-WT, Myc-Rac1-Q61L or Myc-Rac1-T17N. For PI3K/Akt activation experiments, cells were transfected with 0.48 μg of rGFP-CAAX and 0.12 μg of Akt (PH)-RlucII. After 18 h of transfection, the media was replaced and cells were divided for subsequent experiments. Cells were detached and seeded onto poly-L-ornithine-coated 96-well flat white bottom plates (BrandTech Scientific) at a density of 2.5 × 10^4 cells per well in media. The next day, cells were washed once with Tyrode’s buffer (140 mM NaCl, 2.7 mM KCl, 1 mM CaCl2, 12 mM NaHCO3, 5.6 mM D-glucose, 0.5 mM MgCl2, 0.37 mM NaH2PO4, 25 mM HEPES, pH 7.4) and left in Tyrode’s buffer. For kinetics of β-arrestin recruitment or β-arrestin binding to receptor and AP-2 experiments, cells were serum starved for 30 min, pretreated with 21 (50 µM) or Barbadin (100 µM) for 30 min, stimulated with 100 nM AngII or 1 µM BK and BRET signals were monitored at indicated times using a Victor X Light plate reader (PerkinElmer). Coelenterazine H (final concentration of 5 µM) was added 3–5 min prior to BRET measurements. Filter set was 460/80 nm and 535/30 nm for detecting the RlucII Renilla luciferase (donor) and YFP (acceptor) light emissions, respectively. The BRET ratio was determined by calculating the ratio of the light emitted by YFP over the light emitted by the RlucII. For G protein activation, cells were serum starved, pretreated with compounds for 30 min, stimulated with 100 nM AngII for 2 min (Gαq, Gαi3, and Rho sensors) or 5 min (PKC sensor). For the kinetics of GTPase and PI3K/Akt activation, cells were serum starved, pretreated with 21 (50 µM) or Wortmannin (200 nM) for 30 min, stimulated with ligand (100 nM AngII or 100 ng/ml EGF) and BRET signals were monitored at indicated times. […] BRET signals were monitored using a Synergy2 (BioTek) microplate reader and coelenterazine 400a (final concentrations of 5 µM) added 3–5 min prior to BRET measurements. […] The BRET ratio was determined by calculating the ratio of the light emitted by rGFP/GFP10 over the light emitted by the RlucII."}, "[1]": {"test_system": "β-arrestin1 recruitment to AT1R", "assay": "BRET recruitment of β-arrestin1 to AT1R", "conditions": "for AngII-promoted BRET, β-arrestin1 (Barr1) recruitment to AT1R: Comp 21 50 μM, individual experiments", "method": "(§1) HEK293SL cells were seeded at a density of 7.5 × 10^5 cells per 100-mm dish and 24 h later, transiently transfected as such. For receptor internalization experiments, cells were transfected with 0.12 μg AT1R-RlucII, B2R-RlucII, or β2AR-RlucII and 0.48 μg of either rGFP-CAAX (to assess removal from the PM) or rGFP-FYVE (to assess accumulation in the endosomes). For β-arrestin recruitment assays, cells were transfected with 0.48 μg of receptor-YFP along with 0.12 μg of β-arrestin-RlucII. For β-arrestin/AP-2 binding experiments, cells were transfected with 1 μg Flag-AT1R, 1 μg β2-Adaptin-YFP, and 0.12 μg β-arrestin2-RlucII. For G protein activation, cells were transfected with 3 μg of sp-Flag-AT1R along with either 4.5 μg of the Gαq-polycistronic BRET sensor or 0.24 μg of the Gαi3-RlucII and 0.6 μg of GFP10-Gγ2 and Gβ1 sensors or 0.12 μg PKN-RBD-RlucII and 0.48 μg of rGFP-CAAX. For PKC activation, cells were transfected with 3 μg of sp-Flag-AT1R and 0.18 μg of the PKC sensor. For GTPase activation experiments, cells were transfected with 1 μg Flag-AT1R, 0.48 μg of rGFP-CAAX, and either 0.12 μg of GGA3-PBD-RlucII, PAK-CRIB-RlucII or Raf-RBD-RlucII. For biosensor validation experiments, cells were additionally transfected with 500 ng Flag-K-Ras-WT, Flag-K-Ras-G12V, Flag-K-Ras-SOS-CAAX, HA-ARF6-WT, HA-ARF6-T27N, Myc-Rac1-WT, Myc-Rac1-Q61L or Myc-Rac1-T17N. For PI3K/Akt activation experiments, cells were transfected with 0.48 μg of rGFP-CAAX and 0.12 μg of Akt (PH)-RlucII. After 18 h of transfection, the media was replaced and cells were divided for subsequent experiments. Cells were detached and seeded onto poly-L-ornithine-coated 96-well flat white bottom plates (BrandTech Scientific) at a density of 2.5 × 10^4 cells per well in media. The next day, cells were washed once with Tyrode’s buffer (140 mM NaCl, 2.7 mM KCl, 1 mM CaCl2, 12 mM NaHCO3, 5.6 mM D-glucose, 0.5 mM MgCl2, 0.37 mM NaH2PO4, 25 mM HEPES, pH 7.4) and left in Tyrode’s buffer. For kinetics of β-arrestin recruitment or β-arrestin binding to receptor and AP-2 experiments, cells were serum starved for 30 min, pretreated with 21 (50 µM) or Barbadin (100 µM) for 30 min, stimulated with 100 nM AngII or 1 µM BK and BRET signals were monitored at indicated times using a Victor X Light plate reader (PerkinElmer). Coelenterazine H (final concentration of 5 µM) was added 3–5 min prior to BRET measurements. Filter set was 460/80 nm and 535/30 nm for detecting the RlucII Renilla luciferase (donor) and YFP (acceptor) light emissions, respectively. The BRET ratio was determined by calculating the ratio of the light emitted by YFP over the light emitted by the RlucII. For G protein activation, cells were serum starved, pretreated with compounds for 30 min, stimulated with 100 nM AngII for 2 min (Gαq, Gαi3, and Rho sensors) or 5 min (PKC sensor). For the kinetics of GTPase and PI3K/Akt activation, cells were serum starved, pretreated with 21 (50 µM) or Wortmannin (200 nM) for 30 min, stimulated with ligand (100 nM AngII or 100 ng/ml EGF) and BRET signals were monitored at indicated times. For concentration-response curves, cells were serum-starved, pretreated with various concentrations of compounds for 30 min and stimulated with ligand (100 nM AngII, 1 µM BK, 10 µM Isoproterenol (Iso) or 100 ng/ml EGF) in Tyrode’s buffer for 30 min for receptor internalization, 10 min for ARF6, 2 min for Rac and Rho activation and 5 min for Ras activation and PI3K/Akt activation. BRET signals were monitored using a Synergy2 (BioTek) microplate reader and coelenterazine 400a (final concentrations of 5 µM) added 3–5 min prior to BRET measurements. Filter set was 410/80 nm and 515/30 nm for detecting the RlucII Renilla luciferase (donor) and rGFP/GFP10 (acceptor) light emissions, respectively. The BRET ratio was determined by calculating the ratio of the light emitted by rGFP/GFP10 over the light emitted by the RlucII."}, "[2]": {"test_system": "β-arrestin2 recruitment to AT1R", "assay": "BRET recruitment of β-arrestin2 to AT1R", "conditions": "for AngII-promoted BRET, β-arrestin2 (Barr2) recruitment to AT1R: Comp 21 50 μM, individual experiments", "method": "as §1"}, "Gαi3": {"test_system": "Gαi3", "assay": "Gαi3 BRET sensor, AT1R-mediated", "method": "HEK293SL cells were seeded at a density of 7.5 × 10^5 cells per 100-mm dish and 24 h later, transiently transfected as such. For receptor internalization experiments, cells were transfected with 0.12 μg AT1R-RlucII, B2R-RlucII, or β2AR-RlucII and 0.48 μg of either rGFP-CAAX (to assess removal from the PM) or rGFP-FYVE (to assess accumulation in the endosomes). For β-arrestin recruitment assays, cells were transfected with 0.48 μg of receptor-YFP along with 0.12 μg of β-arrestin-RlucII. For β-arrestin/AP-2 binding experiments, cells were transfected with 1 μg Flag-AT1R, 1 μg β2-Adaptin-YFP, and 0.12 μg β-arrestin2-RlucII. […] For kinetics of β-arrestin recruitment or β-arrestin binding to receptor and AP-2 experiments, cells were serum starved for 30 min, pretreated with 21 (50 µM) or Barbadin (100 µM) for 30 min, stimulated with 100 nM AngII or 1 µM BK and BRET signals were monitored at indicated times using a Victor X Light plate reader (PerkinElmer). […] The BRET ratio was determined by calculating the ratio of the light emitted by YFP over the light emitted by the RlucII. […] For the kinetics of GTPase and PI3K/Akt activation, cells were serum starved, pretreated with 21 (50 µM) or Wortmannin (200 nM) for 30 min, stimulated with ligand (100 nM AngII or 100 ng/ml EGF) and BRET signals were monitored at indicated times. […]"}}, "note": "Where “and” joins values, the source holds several entries; their conditions need not be identical. Identical values can stand only once."}
{"smiles": "Nn1cnc2scc(-c3ccc(Cc4ccccc4)cc3)c2c1=O", "note": "[Barbadin, reference compound]", "values": [{"measurement": "V2R-mediated ERK1/2 phosphorylation in HEK293 cells", "setting": "ERK1/2 activation by V2R", "value": "potent inhibition"}]}
{"smiles": "CC(C)C(=O)N1CCN(c2ccc(NC(=O)c3cc4ccccc4o3)cc2Cl)CC1", "note": "[Compound 21]", "values": [{"measurement": "AngII-bound AT1R removal from the PM", "setting": "AT1R; 50 μM", "value": "slowed down and decreased the extent of AngII-bound AT1R removal from the PM"}, {"measurement": "AngII-promoted BRET, AT1R removal from the PM", "setting": "AT1R; time 0 min", "value": 0}, {"measurement": "AngII-promoted BRET, AT1R removal from the PM", "setting": "AT1R; time 5 min", "value": "-0.084 and -0.3663 and -0.1717 and -0.07933"}, {"measurement": "AngII-promoted BRET, AT1R removal from the PM", "setting": "AT1R; time 15 min", "value": "-0.132 and -0.4823 and -0.452 and -0.243"}, {"measurement": "AngII-promoted BRET, AT1R removal from the PM", "setting": "AT1R; time 30 min", "value": "-0.166 and -0.515 and -0.398 and -0.3753"}, {"measurement": "β-arrestin1 recruitment to AT1R at the PM", "setting": "[1]; 50 μM", "value": "did not preclude"}, {"measurement": "AngII-promoted BRET, β-arrestin1 (Barr1) recruitment to AT1R", "setting": "[1]; time 0 min", "value": 0}, {"measurement": "AngII-promoted BRET, β-arrestin1 (Barr1) recruitment to AT1R", "setting": "[1]; time 5 min", "value": "0.07621 and 0.08371 and 0.04185"}, {"measurement": "AngII-promoted BRET, β-arrestin1 (Barr1) recruitment to AT1R", "setting": "[1]; time 10 min", "value": "0.1164 and 0.1114 and 0.05569"}, {"measurement": "AngII-promoted BRET, β-arrestin1 (Barr1) recruitment to AT1R", "setting": "[1]; time 15 min", "value": "0.1198 and 0.1209 and 0.06044"}, {"measurement": "AngII-promoted BRET, β-arrestin1 (Barr1) recruitment to AT1R", "setting": "[1]; time 30 min", "value": "0.1393 and 0.143 and 0.07152"}, {"measurement": "AngII-promoted BRET, β-arrestin1 (Barr1) recruitment to AT1R", "setting": "[1]; time 60 min", "value": "0.1361 and 0.1426 and 0.1043"}, {"measurement": "β-arrestin2 recruitment to AT1R at the PM", "setting": "[2]; 50 μM", "value": "did not preclude"}, {"measurement": "AngII-promoted BRET, β-arrestin2 (Barr2) recruitment to AT1R", "setting": "[2]; time 0 min", "value": 0}, {"measurement": "AngII-promoted BRET, β-arrestin2 (Barr2) recruitment to AT1R", "setting": "[2]; time 5 min", "value": "0.1545 and 0.1824 and 0.1119"}, {"measurement": "AngII-promoted BRET, β-arrestin2 (Barr2) recruitment to AT1R", "setting": "[2]; time 10 min", "value": "0.1572 and 0.2061 and 0.1651"}, {"measurement": "AngII-promoted BRET, β-arrestin2 (Barr2) recruitment to AT1R", "setting": "[2]; time 15 min", "value": "0.1598 and 0.2035 and 0.1848"}, {"measurement": "AngII-promoted BRET, β-arrestin2 (Barr2) recruitment to AT1R", "setting": "[2]; time 30 min", "value": "0.165 and 0.1904 and 0.1659"}, {"measurement": "AngII-promoted BRET, β-arrestin2 (Barr2) recruitment to AT1R", "setting": "[2]; time 60 min", "value": "0.1705 and 0.209 and 0.1941"}, {"measurement": "Gαi3 engagement by AT1R (BRET sensor)", "setting": "Gαi3; 50 μM", "value": "lack of inhibitory effects"}, {"measurement": "Gi3 BRET sensor signal (S_Fig.4b), single experiments", "setting": "Gαi3; listed as Comp 21", "value": "0.11 and 0.122"}]}
